Assay results taken from US6835536B2, “Antimicrobial cationic peptides and formulations thereof” (Micrologix Biotech Inc., priority 2001, dated 2004).

Tests used:
Assay in all cases: Agarose dilution MIC assay
Type in all cases: cell-based
A. calcoaceticus = A. calcoaceticus strain ACA002
Text: (§1) The agarose dilution assay measures antimicrobial activity of peptides and peptide analogues. The activity is expressed as the minimum inhibitory concentration (MIC) in μg/ml of the peptide.
(§2) In order to mimic in vivo conditions, calcium and magnesium supplemented Mueller Hinton broth is used in combination with a low EEO agarose as the bacterial growth medium. Agarose, rather than agar, is used as the charged groups in agar prevent peptide diffusion through the medium. The medium is autoclaved, then cooled to 50-55° C. in a water bath before aseptic addition of a peptide solution. The same volume of different concentrations of peptide solution is added to the cooled, molten agarose that is then poured into a petri plate to a depth of 3-4 mm and allowed to solidify.
(§3) The bacterial inoculum is adjusted to a 0.5 McFarland turbidity standard (PML Microbiological) and then diluted 1:10 before application on to the agarose plate. The final inoculum applied to the agarose is approximately 10^4 CFU in a 5-8 mm diameter spot. The agarose plates are incubated at 35-37° C. for 16 to 20 hours.

C. jeikeium = C. jeikeium strain CJK005
Text: as §1, §2, §3

C. neoformans = C. neoformans strain CNE001
Text: as §1, §2, §3

E. cloacae = E. cloacae strain ECL007
Text: as §1, §2, §3

K. pneumoniae = system: K. pneumoniae
Text: as §1, §2, §3

P. aeruginosa = conditions: for Minimum Inhibitory Concentration: P. aeruginosa strain PAE004, agarose dilution
Text: as §1, §2, §3

S. maltophilia = S. maltophilia strain SMA002
Text: as §1, §2, §3

S. pneumoniae = S. pneumoniae strain SPN002
Text: as §1, §2, §3

S. pyogenes = S. pyogenes strain SPY001
Text: as §1, §2, §3

E. faecalis = E. faecalis strain EFS001
Text: as §1, §2, §3

S. mitis = S. mitis strain SMT014
Text: as §1, §2, §3

E. coli = E. coli strain ECO005
Text: as §1, §2, §3

S. aureus = conditions: for Minimum Inhibitory Concentration: S. aureus strain SAU014, agarose dilution
Text: as §1, §2, §3

C. albicans = conditions: for Minimum Inhibitory Concentration: C. albicans strain CAL002, agarose dilution
Text: as §1, §2, §3

S. epidermidis = conditions: for Minimum Inhibitory Concentration: S. epidermidis strain SEP010, agarose dilution
Text: as §1, §2, §3

S. marcescens = S. marcescens strain SMS003
Text: as §1, §2, §3

Row | Substance | Minimum Inhibitory Concentration (A. calcoaceticus) [µg/mL] | Minimum Inhibitory Concentration (C. jeikeium) [µg/mL] | Minimum Inhibitory Concentration (C. neoformans) [µg/mL] | Minimum Inhibitory Concentration (E. cloacae) [µg/mL] | Minimum Inhibitory Concentration (K. pneumoniae; K. pneumoniae strain KPN001) [µg/mL] | Minimum Inhibitory Concentration (P. aeruginosa) [µg/mL] | Minimum Inhibitory Concentration (S. maltophilia) [µg/mL] | Minimum Inhibitory Concentration (S. pneumoniae) [µg/mL] | Minimum Inhibitory Concentration (S. pyogenes) [µg/mL] | Minimum Inhibitory Concentration (E. faecalis) [µg/mL] | Minimum Inhibitory Concentration (S. mitis) [µg/mL] | Minimum Inhibitory Concentration (E. coli) [µg/mL] | Minimum Inhibitory Concentration (S. aureus) [µg/mL] | Minimum Inhibitory Concentration (C. albicans) [µg/mL] | Minimum Inhibitory Concentration (K. pneumoniae; K. pnenmoniae strain KPN001) [µg/mL] | Minimum Inhibitory Concentration (S. epidermidis) [µg/mL] | Minimum Inhibitory Concentration (S. marcescens) [µg/mL] | other results
1 | W (Dab) W W (Dab) P (Dab) W (Dab) W P (Dab) W [Peptide 11J68CN] | 5e-07 | <0.25 | 1 | 1.6e-05 | 4 | 4e-06 | 4 | 1 | 5e-07 | – | – | – | – | – | – | – | – | –
2 | W (Orn) W W (Orn) V A W (Orn) W V (Orn) W [Peptide 11J58CN] | 1e-06 | 0.5 | 2 | 1.6e-05 | 2 | 1.6e-05 | 2 | 2 | – | 3.2e-05 | 1e-06 | – | – | – | – | – | – | –
3 | W R W W K P K W R W P K W [Peptide 11J02ACN] | – | 0.5 | 16 | >3.2e-05 | 32 | – | 8 | 16 | – | 6.4e-05 | – | 1.6e-05 | 8e-06 | – | – | – | – | –
4 | W (Orn) W W (Orn) P (Orn) W (Orn) W P (Orn) W [Peptide 11J67CN] | 1e-06 | <0.25 | 2 | – | 8 | – | 1 | 2 | – | 6.4e-05 | – | – | 2e-06 | – | – | – | – | –
5 | I L K W V W W V W R R K [Peptide 11B36CN] | 2 | 1 | 16 | 64 | – | 32 | 8 | 4 | 2 | 16 | 2 | 8 | 2 | 8 | 8 | 2 | >128 | –
6 | W V R L W W R R V W [Peptide 11F93CN] | – | 0.5 | 8 | – | 64 | – | 8 | 4 | – | – | – | – | 2e-06 | – | – | – | – | –
7 | R L F V W W V F R R [Peptide 11F64CN] | 2 | 0.5 | 8 | 16 | – | 16 | 1 | 2 | 1 | 2 | 1 | 2 | 1 | 16 | 2 | 1 | >128 | –
8 | r L W V W W V W R R [Peptide 11F67CN] | 2 | 0.5 | 8 | 32 | – | 16 | 2 | 2 | 1 | 4 | 1 | 2 | 2 | 32 | 2 | 1 | >128 | –
9 | R L V V W W V V R R [Peptide 11F63CN] | 2 | 1 | 8 | 16 | – | 8 | 0.5 | 4 | 1 | 4 | 2 | 2 | 2 | 16 | 4 | 1 | >128 | –
10 | R L G G G W V W W V W R R [Peptide 11F50CN] | 2 | 0.5 | 16 | >128 | – | >128 | 8 | 2 | 1 | 16 | 1 | 4 | 2 | 32 | 16 | 1 | >128 | –
11 | R L W W V V W W R R [Peptide 11F56CN] | 1 | 0.5 | 8 | 32 | – | 32 | 2 | 2 | 1 | 2 | 1 | 2 | 1 | 16 | 2 | 1 | >128 | –
12 | W P W W P W R R K [Peptide 11G27CN] | 1.6e-05 | 0.5 | 16 | – | >128 | >0.000128 | 64 | 32 | – | – | – | 6.4e-05 | – | – | – | 8e-06 | – | –
13 | W R W W K V W R W V K W [Peptide 11J36CN] | – | 0.5 | 4 | – | 4 | – | 2 | 2 | – | – | 1e-06 | – | – | – | – | – | – | –
14 | I L R W P W W P W R R K [Peptide 11B7CN] | – | – | – | – | – | – | – | – | – | – | – | – | – | – | – | – | – | MIC (C. albicans; C. albicans (CA002), Table 6): Organism Tested: C. albicans (CA002) MIC = 64 ug/ml; MIC (P. aeruginosa; P. aeruginosa (PA004), Table 6): Organism Tested: P. aeruginosa (PA004) MIC = 128 ug/ml; MIC (S. aureus; S. aureus (SA016), Table 6): Organism Tested: S. aureus (SA016) MIC = 2 ug/ml; MIC (S. epidermidis; S. epidermidis (SE010), Table 6): Organism Tested: S. epidermidis (SE010) MIC = 4 ug/ml
